Structures are written as SMILES. “Also recorded” adds a separate entry of the source.

The subject of one series is cells / HIV. The series can be described thus: Anti-tumor / anti-HIV (biological) action, general statement.
The next series relates to 855-2 cells. The series can be described thus: [3H]thymidine uptake / growth, 855-2 cells. In kind it is cell-based, human.
For series [1], the system named is human peripheral blood neutrophil leukocytes. The series can be described thus: Superoxide generation by human neutrophils.
In another series the test system is HIV-1. The series can be described thus: Anti-HIV action on stimulated human lymphoblasts, virus titer. The note with it: 10 μM; 30 min exposure; virus alone 5.25. Format: cell-based. The method, then:
VIII. Anti-HIV action of NOBP, NOBA and NOQ on stimulated human lymphoblasts
Exposure to the two drugs was only for 30 minutes at the commencement of viral infection, and drugs were never re-added. The results given in Table III provide the ID50 of HIV titer 10 days after infection of cell cultures with HIV.

The target of series [2] is Zn(HIV1-F1)-oligonucleotide complex (Human immunodeficiency virus type 1 lw12.3 isolate, UniProt Q70622). The series can be described thus: NMR studies of Zn(HIV1-F1) nucleic acid binding. The note with it: two equivalents of NOBA (FIG. 11). Format: biochemical, HIV-1. An excerpt: The downfield regions of the spectra show the signals of the aromatic and ribose H1' protons, and the upfield region contain signals of the methyl group protons. Dramatic spectral changes occur upon addition of oligonucleotide to Zn(HIV1-F1), including large upfield shifts of the Phe 2 and Ile 10 side chain=n signals and a downfield shifting and broadening of the guanosine-H8 proton signal (second from the top).
The reaction mechanism, schematically illustrated in FIG. 12, is consistent with the result of NMR analysis in FIGS. 10 and 11. The reaction mechanism proposed in FIG. 12 is a useful model but is not intended to limit the scope of the claimed invention.

The test system of series [3] is normal rhesus bone marrow stem cells. The series can be described thus: CFU stem cell toxicity assay, FIG. 5A. The note with it: 10 μM.
In series [4] the target is Zn(HIV1-F1), N-terminal CCHC zinc finger of the HIV-1 NC protein (Human immunodeficiency virus type 1 lw12.3 isolate, UniProt Q70622). The series can be described thus: NMR studies of zinc ejection from Zn(HIV1-F1). In kind it is biochemical. The note with it: 2 mM NOBA. The method, then: The * and + symbols denote the aromatic proton signals of the zinc-coordinated and zinc-free His 9 residue. Upon completion of the reaction, reflected by complete ejection of zinc (t=90 min), 50% of the NOBA remained unreacted indicating a 1:1 reaction stoichiometry. NOBA (3-nitrosobenzamide), was synthesized described elsewhere in this application.
To determine if NOBA is capable of ejecting zinc from retroviral-type zinc fingers, NMR studies were performed on a peptide with amino acid sequence corresponding to the N-terminal CCHC zinc finger of the HIV-1 NC protein, Zn(HIV1-F1), South, et al., J. Am. Chem. Soc. 111:395-396 (1989), South, et al., Biochem Pharm. 40:123-129 (1990), Summers, et al., Biochemistry 29:329-340 (1990). NMR spectra of Zn(HIV-F1) were performed before and after the addition of NOBA (3-nitrosobenzamide). […] Chem Soc. 111:395-396 (1989), and three-dimensional structural studies have shown that the peptide adopts a structure that is essentially identical to the structure of the corresponding region in the intact NC protein, South, et al., Biochemistry 29:7786-7789 (1990). The down-field region of the ^1 H NMR spectrum showing the signals due to the aromatic proton of His 9 and Phe 2 is illustrated in FIG. 10 (bottom). […]

In a further series the test system is HIV-1 (LAV strain). The series can be described thus: HIV-1 inactivation assay in PHA-stimulated PBL (FIG. 13A, B). Format: cell-based. On the procedure:
The assay was performed as described in FIG. 13A except that the 30 min. preincubation of virus with NOBA was carried out at 0, 22 or 37° C.
An HIV-1 stock having an infectivity titer of 100,000 TCID50 was incubated for 30 min. at 22° C. with either of the drugs. Control HIV samples, containing no drugs, were incubated in the same manner. […] At the end of this incubation cultures were assayed for productive infection by an immunoassay for HIV-1 antigens and by reverse transcriptase as described in McDougal, et al., J. Immunol Methods 76:171-183 (1985). Virus titers were expressed as percentile values (percent infected cultures) compared to the controls, containing HIV dilutions which were not preincubated with the C-nitroso drugs. In a separate series of experiments, HIV-1 dilutions and C-nitroso drugs (see upper abscissa) were not preincubated but were added simultaneously to lymphocytes in exactly the same concentrations as described previously (i.e., following preincubation) and viral growth monitored 9 days later. […] Chem. Soc. 111:395-396 (1989), South, et al., Biochem Pharm. 40:123-129 (1990), Summers, et al., Biochemistry 29:329-340 (1990), the inhibition of HIV-1 propagation was profound when C-nitroso drugs were preincubated with HIV-1, whereas only negligible effect on HIV-1 growth occurred when both drugs and virus were added simultaneously.
Experiments were performed in which the incubations with NOBA was carried out at 0°, 22°, and 37° C. […] In agreement with the negligible cytotoxic effect of C-nitroso drugs on non-tumor cells described elsewhere in this application, human lymphocytes tolerated NOBA up to 50 μM without major changes in cell metabolism, which was assayed by quantitative dye reduction as described in Mosaran, J. Imm. Methods 65:55-63 (1983).

The test system of a further series is HL-60 cells. The series can be described thus: Colony formation (CFU) in semi-solid medium, HL-60. In kind it is cell-based, human. The note with it: single cells in semi-solid medium.

Turning to `NC(=O)c1cccc(N=O)c1` [NOBA, 3-nitrosobenzamide], the “anti-tumor and anti-HIV activity, in words” value in the series with cells / HIV is “highly active as anti-tumor and anti-HIV molecules”. Besides, in the series on cells / HIV (exposure as short as 30 minutes), the “effectiveness after short exposure of cells” value is listed as “effective even after exposure of cells for a period as short as 30 minutes”. In addition, in the series on 855-2 cells (10 μM, increasing FCS), the “growth arrest of 855-2 cells at increasing serum concentration” value was “Growth arrest occurs irrespective of the concentration of FCS”. For the same compound, the “relative potency, 855-2” value in the series with 855-2 cells (10% fetal bovine serum) is on record as “potent inhibitory effects regardless of the source of growth factor activity”. Moreover, the “superoxide generation by human neutrophils (mean + S.D., n = 11)” value in [1] (10 μM, 10^5 PMN + PMA (control 55.9 ± 7.7)) came out at 44.4 ± 10.0 nmol O2^- /hr/10^5 cells. In addition, in [1] (10 μm), the “superoxide generation, in words” value is “Only minor reductions in superoxide generation”. In addition, the “Virus Titer (log ID50), 10 days” value in the series on HIV-1 turned out to be 1.05 log ID50. Further, the “zinc ejection and loss of nucleic acid binding, in words” value in series [2] is recorded as “ejection of zinc with concomitant dissociation of the zinc finger nucleic acid complex; also recorded: NOBA-induced zinc ejection leads to loss of high-affinity nucleic acid binding function”. Besides, the “CFU stem cell toxicity, in words” value in series [3] is given as “non-toxic”. In addition, in series [4] (1 mM Zn(HIV1-F1), D2O, pH* 6.2, 30° C.), the “time of complete ejection of zinc from Zn(HIV1-F1)” value was 90 min. The NOBA remaining unreacted in [4] (90 min) was found to be 50%. For the same compound, in the series with HIV-1 (LAV strain) (Human immunodeficiency virus 1, 0.5 h, 100 μM, 30 min, 22° C., 9 days, read-out: decrease of infectious virus available to cause 50% infected cultures), the log reduction at 100 µM worked out at 4. For the same compound, in the series with HIV-1 (LAV strain) (NOBA vs NOBP), the “relative depression of HIV-1 propagation, in words” value is “greater depression of HIV-1 propagation”. For the same compound, the “temperature of maximal inactivation of HIV-1” value with HIV-1 (LAV strain) (preincubation at 0°, 22° and 37° C.) amounted to 37 °C. In the series with HL-60 cells, the “colony formation, HL-60, in words” value was “inhibit the ability of human leukemic cells (855-2 and HL-60) to form colonies”.
